SMILES strings stand for the structures.

Among the data in patent US9732070B2, “Protein kinase C inhibitors and uses thereof” (Rigel Pharmaceuticals, Inc., priority 2009, dated 2017) are IC50 values, retold here.

In this assay the test system is Human primary T cells. Kind of assay: IL-2 ELISA, human primary T cell, anti-CD3+CD28 stimulation. To be noted: T-cell; IL-2 quantified by ELISA; human primary T cells stimulated with αCD3 and αCD28, 24 hours. It counts as cell-based. As for the experimental part:
Human primary T cell isolation and culture: Human primary T cells were prepared as follows. Whole blood was obtained from a healthy volunteer, mixed 1:1 with PBS, layered on to Ficoll Hypaque (Amersham Pharmacia Biotech, Piscataway, N.J., Catalog #17-1440-03) in 2:1 blood/PBS:ficoll ratio and centrifuged for 30 minutes at 4° C. at 1750 rpm. The cells at the serum: ficoll interface were recovered and washed twice with 5 volumes of PBS. These freshly isolated human peripheral blood mononuclear cells were cultured in Yssel's medium containing 40 U/mL IL2 in a flask pre-coated with 1 μg/mL αCD3 and 5 μg/mL αCD28 (Anti-Human CD3, BD Pharmingen Catalog #555336, Anti-Human CD28, Beckman Coulter Catalog #IM1376). The cells were stimulated for 3-4 days, then transferred to a fresh flask and maintained in RPMI (RPMI-1640 with L-Glutamine; Mediatech, Inc., Herndon Va., cat. #10-040-CM) with 10% FBS and 40 U/mL IL-2. The primary T-cells were then washed twice with PBS to remove the IL-2.
Primary T cell stimulation and IL2 ELISA: Human primary T cells (100,000 cells per well) were pre-incubated with or without test compound in Yssel's medium for 1 hour at 37° C. Cells were then stimulated by transferring them to round-bottom 96-well plates pre-coated with 1 μg/ml αCD3 and 5 μg/ml αCD28. For counter assay, cells were instead stimulated by adding 8× stock solutions of PMA and ionomycin in Yssels (for final concentrations of 0.5 ng/ml PMA and 0.1 uM ionomycin, both from Calbiochem). Cells were incubated at 37° C. for 24 hours before 100 μL supernatants were harvested for quantification of IL-2 by ELISA using Human IL-2 Duoset ELISA Kit from R and D Systems, Cat. # DY202E.
(ELISA stands for enzyme-linked immunosorbent assay.)
With `Cn1nnn(-c2cc(Nc3ncc(C#N)c(NC4CC(C)(C)NC(C)(C)C4)n3)cc(F)c2C2CC2)c1=O` [I-62, N2-(4-cyclopropyl-5-fluoro-3-(4-methyl-4,5-dihydro-5-oxo-1H-tetrazol-1-yl)phenyl)-N4-(2,2,6,6-tetramethylpiperidin-4-yl)pyrimidine-2,4-diamino-5-carbonitrile], the half-maximal inhibitory concentration (IC50) – broadly, the concentration that gives 50% inhibition – was less than 500 nM.

`Cn1nnn(-c2cc(Nc3ncc(F)c(NC4CC(C)(C)NC(C)(C)C4)n3)c(F)cc2Cl)c1=O` [I-68] gave a half-maximal inhibitory concentration (IC50) of less than 500 nM.

Consider `CN1C(C)(C)CC(Nc2nc(Nc3cc(C#N)cc(-n4nnn(C)c4=O)c3)ncc2F)CC1(C)C` [I-49], for which the concentration for half-maximal inhibition (IC50) is less than 500 nM.

`CN1C(C)(C)CC(Nc2nc(Nc3cc(OC4COC4)cc(-n4nnn(C)c4=O)c3)ncc2F)CC1(C)C` [I-24, 1-(3-(4-(1,2,2,6,6-pentamethylpiperidin-4-ylamino)-5-fluoropyrimidin-2-ylamino)-5-(oxetan-3-yloxy)phenyl)-4-methyl-1H-tetrazol-5(4H)-one] registered a 50% inhibitory concentration (IC50) of less than 500 nM.

`COc1cc(Nc2ncc(F)c(NC3CC(C)(C)N(C)C(C)(C)C3)n2)cc(-n2nnn(C)c2=O)c1` [I-31, N2-{5-methody-[3-(4-methyl)-1,2,3,4-tetrazol-5-one-1-yl]}phenyl-5-fluoro-N4-(1,2,2,6,6-pentamethylpiperidin-4-yl)-2,4-pyrimidinediamine]: the IC50 is less than 500 nM. The molecule `Cn1nnn(-c2cc(Nc3ncc(C#N)c(NC4CC(C)(C)NC(C)(C)C4)n3)cc(C(F)(F)F)c2C2CC2)c1=O` [I-41, 5-cyano-N2-{4-cyclopropyl-5-trifluoromethyl-[3-(4-methyl)-1,2,3,4-tetrazol-5-one-1-yl]}phenyl-N4-(2,2,6,6-tetramethylpiperidin-4-yl)-2,4-pyrimidinediamine] yielded a 50% inhibitory concentration (IC50) of less than 500 nM. Molecule `Cn1nnn(-c2cccc(Nc3ncc(F)c(NC4CC(C)(C)NC(C)(C)C4)n3)c2)c1=O` [I-13] gave an IC50 of 510 to 2990 nM.

`CN1C(C)(C)CC(Nc2nc(Nc3cccc(-n4nnn(C)c4=O)c3)ncc2F)CC1(C)C` [I-12, 5-fluoro-n2-[3-(4-methyl)-1,2,3,4-tetrazol-5-one-1-yl]phenyl-n4-(1,2,2,6,6-pentamethylpiperidin-4-yl)-2,4-pyrimidinediamine] showed an IC50 of 510 to 2990 nM. As for `Cn1nnn(-c2cc(Nc3ncc(F)c(NC4CC(C)(C)NC(C)(C)C4)n3)c(F)cc2C2CC2)c1=O` [I-14], the figure is less than 500 nM; as for `Cn1nnn(-c2cc(Nc3ncc(F)c(NC4CC(C)(C)NC(C)(C)C4)n3)cc(C3CC3)c2F)c1=O` [I-43, N2-{5-cyclopropyl-4-fluoro-[3-(4-methyl)-1,2,3,4-tetrazol-5-one-1-yl]}phenyl-5-fluoro-N4-(2,2,6,6-tetramethylpiperidin-4-yl)-2,4-pyrimidinediamine], less than 500 nM. Molecule `CN1C(C)(C)CC(Nc2nc(Nc3cc(-n4nnn(C)c4=O)c(C4CC4)c(C(F)(F)F)c3)ncc2C#N)CC1(C)C` [I-42, 5-cyano-N2-{4-cyclopropyl-5-trifluoromethyl-[3-(4-methyl)-1,2,3,4-tetrazol-5-one-1-yl]}phenyl-N4-(1,2,2,6,6-pentamethylpiperidin-4-yl)-2,4-pyrimidinediamine] came in with an IC50 of less than 500 nM. For `Cn1nnn(-c2cc(F)cc(Nc3ncc(F)c(NC4CC(C)(C)NC(C)(C)C4)n3)c2)c1=O` [I-23, 1-(3-(4-(2,2,6,6-tetramethylpiperidin-4-ylamino)-5-fluoropyrimidin-2-ylamino)-5-fluorophenyl)-4-methyl-1H-tetrazol-5(4H)-one], the IC50 is less than 500 nM. As for `Cn1nnn(-c2cc(Nc3ncc(F)c(NC4CC(C)(C)NC(C)(C)C4)n3)cc(F)c2C2CC2)c1=O` [I-59, 1-(2-cyclopropyl-3-fluoro-5-(5-fluoro-4-(2,2,6,6-tetramethylpiperidin-4-ylamino)pyrimidin-2-ylamino)phenyl)-4-methyl-1H-tetrazol-5(4H)-one], the figure is less than 500 nM; as for `Cc1ccc(Nc2ncc(F)c(NC3CC(C)(C)NC(C)(C)C3)n2)cc1-n1nnn(C)c1=O` [I-9, 5-fluoro-n2-{4-methyl-[3-(4-methyl)-1,2,3,4-tetrazol-5-one-1-yl]}phenyl-n4-(2,2,6,6-tetramethylpiperidin-4-yl)-2,4-pyrimidinediamine], less than 500 nM; as for `CN1C(C)(C)CC(Nc2nc(Nc3ccc(F)c(-n4nnn(C)c4=O)c3)ncc2F)CC1(C)C` [I-3, 5-fluoro-n2-{4-fluoro-[3-(4-methyl)-1,2,3,4-tetrazol-5-one-1-yl]}phenyl-n4-(1,2,2,6,6-pentamethylpiperidin-4-yl)-2,4-pyrimidinediamine], less than 500 nM.

`CN1C(C)(C)CC(Nc2nc(Nc3cc(C4CC4)cc(-n4nnn(C)c4=O)c3)ncc2F)CC1(C)C` [I-36, N2-{5-cyclopropyl-[3-(4-methyl)-1,2,3,4-tetrazol-5-one-1-yl]}phenyl-5-fluoro-N4-(1,2,2,6,6-pentamethylpiperidin-4-yl)-2,4-pyrimidinediamine] had a concentration for half-maximal inhibition (IC50) of less than 500 nM. Molecule `CC1(C)CC(Nc2nc(Nc3ccc(F)c(-n4nn[nH]c4=O)c3)ncc2F)CC(C)(C)N1` [I-2, 5-fluoro-n2-{4-fluoro-[3-(4-h)-1,2,3,4-tetrazol-5-one-1-yl]}phenyl-n4-(2,2,6,6-tetramethylpiperidin-4-yl)-2,4-pyrimidinediamine] registered an IC50 of more than 25000 nM.
